# Assay results from patent publication US20120172329A1, “PHYTOCHEMICAL COMPOSITIONS INCLUDING XANTHONES FOR ANTI-INFLAMMATORY, ANTI-CYTOKINE STORM, AND OTHER USES” (Thailand Excellence Center for Tissue Engineering, priority 2009, published 2012).
# Experiments:
# Assay type in all cases: cell-based
# [1] = test system: LPS induced peripheral blood mononuclear cells (PBMCs); test: IL-1 released by LPS induced PBMCs incubated with sesamin (ELISA), Example Six
# Procedure: (§1) Experiments were conducted to evaluate the effect of particular phytochemical compositions provided by the present disclosure on quantity of IL-1 released by specified cells found within a body of a living organism. Cells used for the experiment described in this example are LPS induced peripheral blood mononuclear cells (PBMCs). It is understood by a person having ordinary skill in the art that the PBMCs may be substituted for other immune cells found within the body. It is also understood by a person having ordinary skill in the art that other inducing substances or chemicals besides LPS, for example viral antigens, may also be used for inducing the PBMCs.
# (§2) To conduct the experiments of example six, PBMCs were isolated and prepared using methods or techniques known to a person having ordinary skill in the art. An exemplary method or techniques is the differential density gradient centrifugation technique, the steps or process steps of which is known to a person of ordinary skill in the art. In addition, LPS can be obtained from a commercial source, for example Sigma-Aldrich Co.
# The PBMCs are cultured in 10% fetal calf serum in RPMI1640 medium. Seven cultures of PBMCs, i.e. culture 1 to culture 7, were prepared. The contents of each of cultures 1 to 7 were as follows:
# (i) Culture 1: First control culture. Includes a predetermined volume of PBMCs (1×10^5 PBMCs/culture);
# (ii) Culture 2: Second control culture. Includes the predetermined volume of PBMCs (1×10^5 PBMCs/culture) and LPS at a concentration of 20 ng/ml;
# (iii) Culture 3: Includes the predetermined volume of the specified concentration of PBMCs, LPS at a concentration of 20 ng/ml, and a volume of phytochemical composition providing 0.1 uM of sesamin; […]
# After a predetermined time period, quantity of IL-1 in each of cultures 1 to 7 was quantified using the ELISA technique (e.g., Biotrak Easy ELISA Aersham). The quantity of IL-1 detected by the ELISA technique in each of cultures 1 to 7 reflects the quantity of IL-1 released by the PBMCs of that culture.
# [2] = test system: LPS induced peripheral blood mononuclear cells (PBMCs); test: IL-2 gene expression relative to GAPDH in LPS induced PBMCs incubated with sesamin (RT-PCR), Example Seven; details: culture 4, 1.0 ug/ml of sesamin; greatest increase
# Procedure: as §1, with “IL-2 gene expression in” for “quantity of IL-1 released by”
# as §2, with “seven,” for “six,”, “Co. […]” for “Co.”
# (§3) The amount or level of IL-2 gene expression in the PBMCs was measured or determined using methods or techniques known to a person having ordinary skill in the relevant art. In example three, Real-Time PCR (RT-PCR) was used for quantifying the amount of IL-2 gene expression in the PBMCs.
# [3] = test system: lipopolysaccharide (LPS) induced synovial fibroblast (SF) cells; test: IL-1 gene expression relative to GAPDH in LPS induced synovial fibroblast cells incubated with sesamin (RT-PCR), Example Five
# Procedure: Experiments were conducted to evaluate the effect of particular phytochemical compositions provided by the present disclosure on IL-1 gene expression in specified cells found within a body of a living organism. The cells used for the experiment described in […] are lipopolysaccharide (LPS) induced synovial fibroblast (SF) cells. The SF cells were isolated from synovium tissue (also referred to as synovial tissue) using a standard cell isolation technique or method that is known to a person of ordinary skill in the art. In addition, LPS is obtained from a commercial source, for example Sigma-Aldrich Co. It is understood by a person having ordinary skill in the art that the SF cells may be substituted with other immune cells found within the body, for example lymphocytes, monocytes, and macrophages. […]
# as §3, with “IL-1” for “IL-2”, “SF cells” for “PBMCs”, “five,” for “three,”, “SF cells. IL-1beta or IL-1β specific primers were used during RT-PCR, thereby facilitating or effectuating the quantification of IL-1β gene expression in the SF cells. […]” for “PBMCs.”
smiles,measurement,setting,value
c1cc2c(cc1[C@H]1OC[C@H]3[C@@H]1CO[C@@H]3c1ccc3c(c1)OCO3)OCO2 [sesamin],decrease in quantity of IL-1,"[1]; culture 3, 0.1 uM sesamin, vs control culture 1, minimum decrease",approximately 5%
same,decrease in quantity of IL-1,"[1]; culture 4, 0.5 uM sesamin, vs control culture 1, minimum decrease",approximately 5%
same,decrease in quantity of IL-1,"[1]; culture 7, 10 uM sesamin, vs control culture 2, maximum decrease",approximately 35%
same,increase in IL-2 gene expression relative GAPDH,[2],approximately 220%
same,IL-1 gene expression relative to GAPDH decreased,"[3]; culture 4, 0.025 mM sesamin, vs control culture 3, minimal decrease",approximately 20%
same,IL-1 gene expression relative to GAPDH decreased,"[3]; culture 9, 1.0 mM sesamin, vs control culture 2, maximal decrease",approximately 65%
